Reference: ChEMBL document CHEMBL1131204, “Flavonoid derivatives as adenosine receptor antagonists: a comparison of the hypothetical receptor binding site based on a comparative molecular field analysis model” (J Med Chem, 1998)
“And” between values parts separate entries of the source, which are not always exact repeats. Identical values can stand only once.

Columns and labels:
[1] = biological target: T1, Adenosine receptor A3 (Homo sapiens) (UniProt P0DMS8); assay: Ability to displace [125I]-AB-MECA binding from adenosine A3 receptor.
T1 sequence (whole entry): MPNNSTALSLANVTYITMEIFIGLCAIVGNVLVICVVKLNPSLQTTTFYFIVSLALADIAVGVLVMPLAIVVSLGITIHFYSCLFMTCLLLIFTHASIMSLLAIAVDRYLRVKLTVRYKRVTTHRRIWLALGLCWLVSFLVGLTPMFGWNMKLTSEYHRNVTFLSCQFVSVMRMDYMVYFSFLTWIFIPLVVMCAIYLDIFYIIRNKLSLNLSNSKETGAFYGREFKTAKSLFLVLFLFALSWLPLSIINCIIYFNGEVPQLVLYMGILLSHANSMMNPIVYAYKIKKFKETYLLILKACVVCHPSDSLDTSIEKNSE

[2] = biological target: Adenosine receptor A2a (Rattus norvegicus) (UniProt P30543); assay: Ability to displace [3H]-CGS- 21680 binding from adenosine A2A receptor.
[3] = biological target: T2, Adenosine receptor A1 (Rattus norvegicus) (UniProt P25099); assay: Ability to displace [3H]N6-phenylisopropyladenosine binding from adenosine A1 receptor.
T2 sequence (whole entry): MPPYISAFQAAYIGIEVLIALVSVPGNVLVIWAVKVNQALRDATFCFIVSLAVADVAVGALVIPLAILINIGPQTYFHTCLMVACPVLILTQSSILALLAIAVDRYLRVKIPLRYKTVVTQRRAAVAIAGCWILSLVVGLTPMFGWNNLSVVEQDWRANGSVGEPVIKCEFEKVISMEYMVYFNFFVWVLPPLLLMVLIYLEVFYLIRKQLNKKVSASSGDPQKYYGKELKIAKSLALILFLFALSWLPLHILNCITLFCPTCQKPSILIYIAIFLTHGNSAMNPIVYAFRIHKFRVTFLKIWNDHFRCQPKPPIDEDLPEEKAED

Chain of Adenosine receptor A2a (Rattus norvegicus) (P30543 whole entry): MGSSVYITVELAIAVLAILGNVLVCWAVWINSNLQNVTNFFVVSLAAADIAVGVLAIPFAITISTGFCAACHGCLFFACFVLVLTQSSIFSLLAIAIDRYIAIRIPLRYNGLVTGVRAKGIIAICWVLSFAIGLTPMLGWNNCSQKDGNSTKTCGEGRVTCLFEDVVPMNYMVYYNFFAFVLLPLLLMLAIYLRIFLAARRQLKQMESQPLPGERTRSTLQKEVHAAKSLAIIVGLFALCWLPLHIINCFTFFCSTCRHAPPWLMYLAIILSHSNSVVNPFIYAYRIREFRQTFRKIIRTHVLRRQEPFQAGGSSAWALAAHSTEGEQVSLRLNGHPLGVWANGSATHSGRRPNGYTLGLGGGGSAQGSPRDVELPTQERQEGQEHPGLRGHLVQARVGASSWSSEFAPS

Row | SMILES | pKi(uM) [1] | pKi(uM) [2] | pKi(uM) [3]
1 | COC1(OC)Cc2oc(-c3ccc(O)cc3O)c(CC=C(C)C)c(=O)c2C(O)=C1/C=C/C(C)C | -0.66 |  | 
2 | CCOc1cc(O)c2c(=O)c(OCC)c(-c3ccccc3)oc2c1 | 0.13 | -1.8 | 
3 | COc1c2ccoc2cc2oc(/C=N/c3ccccc3)cc(=O)c12 | -0.96 |  | 
4 | COc1ccc2c(=O)c(O)c(-c3ccc(O)c(O)c3)oc2c1 | -0.14 |  | 
5 | COc1cc2oc(-c3ccc(O)cc3)cc(=O)c2c(O)c1OC | -0.5 | -0.48 | -0.08
6 | O=C1c2ccccc2OC(c2ccccc2O)C1O (stereo unspecified) |  |  | -1.96
7 | O=c1cc(-c2ccccc2)oc2ccccc12 | -1.23 | -0.54 | -0.52
8 | COc1ccc2c(c1)C(=O)C(O)C(/C=C/c1ccccc1)O2 (stereo unspecified) | -1.32 |  | 
9 | COc1ccc2c(c1)C(=O)C(O)C(C#Cc1ccccc1)O2 (stereo unspecified) | -0.91 |  | -1.7
10 | CCOc1cc(OCC)c2c(=O)c(OCC)c(-c3ccccc3)oc2c1 | 0.44 | -0.52 | 0.22
11 | O=c1cc(-c2ccccc2)oc2cccc(O)c12 |  | -0.79 | 
12 | COc1c2ccoc2cc2oc(C)cc(=O)c12 | -1.78 | -1.63 | 
13 | CCOc1c(-c2c(C)cc(C)cc2C)oc2ccc(Cl)cc2c1=O | -0.72 |  | 
14 | COc1cc(O)c2c(c1)OC(c1ccc(O)cc1)CC2=O (stereo unspecified) | -0.53 | -1.55 | -0.91
15 | CC(=O)Oc1cc(OC(C)=O)c2c(=O)c(OC(C)=O)c(-c3ccccc3)oc2c1 | -1.24 |  | -1.06
16 | O=c1cc(-c2ccccc2)oc2c1ccc1ccccc12 |  | -0.12 | 0.1
17 | COc1ccc(-c2oc3cc(OC)cc(OC)c3c(=O)c2OC)cc1 | -0.53 |  | -0.03
18 | CCOc1ccc(-c2oc3cc(OCC)cc(O)c3c(=O)c2OCC)c(OCC)c1 | -0.68 |  | 
19 | COc1ccc(-c2cc(=O)c3c(OC)c(OC)c(OC)cc3o2)cc1 | -0.65 |  | -0.11
20 | COc1ccc(-c2cc(=O)c3ccc(O)cc3o2)cc1OC |  | -1.54 | -1.27
21 | CCOc1ccc(-c2oc3cc(OCC)cc(OCC)c3c(=O)c2OCC)c(OCC)c1 | -0.86 | -1.42 | 

Row | SMILES | pKi(uM) [1] | pKi(uM) [2] | pKi(uM) [3]
22 | COc1cc(OC)c(-c2oc3ccccc3c(=O)c2O)c(OC)c1 | -1.7 |  | -0.86
23 | O=c1cc(-c2ccccc2)oc2cc(O)ccc12 |  | -0.43 | -0.48
24 | O=c1c(Cl)c(-c2ccccc2)oc2ccccc12 | -1.06 | -1.4 | 
25 | CCOc1c2ccoc2cc2oc(/C=C/c3ccccc3)cc(=O)c12 | -0.06 | -1.53 | -1.55
26 | COc1c2ccoc2cc2oc(/C=C/c3ccccc3)cc(=O)c12 | -0.92 | -1.06 | -1.51
27 | CCOc1c2ccoc2cc2oc(/C=C/C=C/c3ccccc3)cc(=O)c12 | -1.66 | -2.22 | 
28 | CC(=O)Oc1cc(OC(C)=O)c2c(c1)OC(c1ccccc1)C(OC(C)=O)C2=O (stereo unspecified) |  | -1.75 | 
29 | O=C1CC(c2ccccc2O)Oc2ccccc21 (stereo unspecified) | -0.78 | -1.25 | -0.42
30 | COc1cc(OC)c2c(=O)c(OC)c(-c3cc(OC)c(OC)c(OC)c3)oc2c1 | -0.82 |  | 
31 | COc1ccc(-c2cc(=O)c3c(O)cc(C)cc3o2)cc1 | -1.7 | -1.45 | -0.53
32 | COc1c2ccoc2cc2oc(C=O)cc(=O)c12 | -1.95 |  | 
33 | COc1ccc2oc(C#Cc3ccccc3)c(O)c(=O)c2c1 | -1.38 |  | 
34 | O=c1cc(-c2ccc(O)cc2)oc2cc(O)cc(O)c12 |  | -0.88 | -0.48
35 | Cc1ccc(-c2oc3ccc(Cl)cc3c(=O)c2Cl)c(C(C)C)c1 | 0.25 |  | 
36 | COc1c(O)cc2oc(-c3ccc(O)cc3)cc(=O)c2c1O |  | -0.88 | -0.21
37 | COc1cc(OC)c2c(=O)c(OC)c(-c3ccccc3)oc2c1 | 0.08 and -0.09 | -0.81 | 0.29
38 | O=C1CC(c2ccccc2)Oc2ccccc21 (stereo unspecified) | -1.21 |  | 
39 | O=c1c(Cl)c(-c2ccccc2)oc2ccc(Cl)cc12 |  | -1.74 | 
40 | O=c1c(O)c(-c2ccc(O)c(O)c2)oc2cc(O)cc(O)c12 |  | -0.84 | 
41 | O=c1c(O)c(-c2ccccc2)oc2cc(O)cc(O)c12 | -0.23 |  | 
42 | O=C1CC(c2ccc(O)cc2)Oc2ccccc21 (stereo unspecified) | -1.36 |  | -1.06
